The values below come from patent publication US20070060629A1, “Large conductance calcium-activated k channel opener” (priority 2003, published 2007).

For one assay, the system named is isolated rabbit urinary bladder. Nature of the assay: Relaxation effect on potassium-induced contraction of isolated rabbit urinary bladder. To be noted: Oryctolagus cuniculus; isolated rabbit urinary bladder strips pre-contracted with high-K+ (30 mM); relaxation relative to 10^-4 M papaverine as 100%; rank A, B or C; read-out: IC50 value (50% relaxation concentration). Type of assay: cell-based. How it is done: Relaxation Effect on Potassium-Induced Contraction of Isolated Rabbit Urinary Bladder
Urinary bladder was isolated from Male NZW rabbits (body weight: 2.0-3.5 kg) and immersed in ice-cold Krebs-bicarbonate solution (in mM: 118 NaCl, 4.7 KCl, 2.55 CaCl2, 1.18 MgSO4, 1.18 KH2PO4, 24.88 NaHCO3 and 11.1 glucose). The urinary bladder was cut into longitudinal strips (5 mm length, 3-4 mm width) after mucosal layer was removed.
Preparations were mounted in organ baths containing 10 ml of Krebs solution maintained at 37° C. and gassed with 95% O2/5% CO2. Accordingly, preparations were stretched with an initial tension of 2.0±1.0 g, and changes in isometric tension were measured by force-displacement transducer. The preparations were pre-contracted by changing organ-bath solution into high-K^+ (30 mM) Krebs solution (in mM: 118 NaCl, […], 2.55 CaCl2, 1.18 MgSO4, 1.18 KH2PO4, 24.88 NaHCO3 and 11.1 glucose).
After stable tension was obtained, compounds were added into organ baths cumulatively (10^−8 M-10^−4 M). The effects of compounds were expressed as a percentage of the maximum relaxation produced by 1O^−4 M papaverine as 100%. 50% relaxation concentration (IC50) was calculated and IC50 value range (μM) of compounds of the present invention was shown in the following Table 68 with a rank of A, B or C. These ranges are as mentioned below. 3 μM≧C>1 μM≧B>0.5 μM≧A
Take `Cc1cccc(-n2nc(C(F)(F)F)cc2-c2ccc(C)c(S(N)(=O)=O)c2)c1` [Example 45]: the IC50 lay in the range of 1000 to 3000 nM. The same measure, in the same setting: to `Cc1onc(-c2ccc(N(C)C)cc2)c1-c1ccc(S(N)(=O)=O)cc1` [Example 115] belongs below 500 nM; to `Cc1onc(-c2ccccc2)c1-c1ccc(C(N)=O)c(O)c1` [Example 155, 2-hydroxy-4-(5-methyl-3-phenylisoxazol-4-yl)benzamide], 1000 to 3000 nM.

In the case of `Cc1ccc(-c2cc(C(F)(F)F)nn2-c2ccc(C(=O)NCCO)cc2)cc1` [Example 51], the IC50 is 1000 to 3000 nM. As for `Cc1onc(-c2cccnc2)c1-c1ccc(C(=O)NCCO)cc1` [Example 207], the IC50 lay within 500 to 1000 nM. The same measure, in the same setting: next, `COC(=O)NCCNS(=O)(=O)c1ccc(-n2nc(C(F)(F)F)cc2-c2ccc(C)cc2)cc1` [Example 59, methyl {2-[({4-[5-(4-methylphenyl)-3-(trifluoromethyl)-1H-pyrazol-1-yl]phenyl}sulfonyl)amino]-ethyl}carbamate]: 1000 to 3000 nM; `Cc1ccc(-c2cc(C(F)(F)F)nn2-c2ccccc2)cc1S(=O)(=O)NCCO` [Example 46]: 1000 to 3000 nM; `COCCNS(=O)(=O)c1ccc(-n2nc(C(F)(F)F)cc2-c2ccc(C)cc2)cc1` [Example 30]: 1000 to 3000 nM.

Take `Cc1onc(-c2ccccc2)c1-c1ccc(OCCO)cc1` [Example 152, 2-[4-(5-methyl-3-phenylisoxazol-4-yl)phenoxy]ethanol]: the IC50 was in the range of 500 to 1000 nM.

In a further assay the test system is anesthetized rats. In words: Inhibitory effect on the rhythmic bladder contractions induced by substance P in anesthetized rats. Type of assay: in vivo, rat. To be noted: time during which frequency of rhythmic bladder contraction was completely inhibited; 0.25 mg/kg of compound, intravenous; substance P-infused anesthetized rats. As to the method:
Inhibitory Effect on the Rhythmic Bladder Contractions Induced by Substance P in Anesthetized Rats
For the experiments, Sprague-Dawley female rats (9 to 12 weeks old) weighing between 200 to 300 g were used. After urethane anesthetization (subcutaneously administered with a dose of 1.2 g/kg), cannulae were placed in both right and left femoral veins. One intravenous catheter was used for administration of compounds, and the other was for the substance P (0.33 μg/kg/min) infusion. We also cannulated into ureter to pass urine. Polyethylene catheters were inserted into carotid artery for continuous monitoring of arterial blood pressure and heart rate. For continuous infusion, transurethral bladder catheter was inserted into the bladder through the urethra and tied in place by a ligature around the urethral orifice. One end of the catheter was attached to a pressure transducer in order to measure intravesical pressure. The other end of the catheter was used for infusion of saline into the bladder. After stabilization of blood pressure and heart rate and after the bladder was emptied, cystometry was performed by filling the bladder slowly with about 0.6 ml of saline. After about 10 minutes, intravenous infusion of substance P (0.33 μg/kg/min) was started for stabilization of the micturition reflex. Compounds were administered after stable rhythmic bladder contraction was obtained over 15 minutes. All compounds were dissolved or suspended in saline containing 0.5% Tween 80 for intravenous administration (0.1 ml/kg).
Also, pre-administration of iberiotoxin, a selective large conductance calcium-activated K channel blocker (0.15 mg/kg, intravenous administration) reduced inhibitory effect of the compounds of the present invention on the rhythmic bladder contraction.
With `Cc1onc(-c2ccccc2)c1-c1ccc(C(=O)N[C@@H](C)CO)cc1` [Example 135, N-[(1S)-2-hydroxy-1-methylethyl]-4-(5-methyl-3-phenylisoxazol-4-yl)benzamide], the “100% inhibiting time” value was 17.8 min. On to `Cc1onc(-c2ccccc2)c1-c1ccc(S(=O)(=O)NO)cc1` [Example 171], for which the “100% inhibiting time” value is 12.8 min. Same read-out and setting: to `Cc1onc(-c2cccnc2)c1-c1ccc(C(=O)NCCO)cc1` [Example 207] belongs 13.9 min. Regarding `COC(=O)NCCNS(=O)(=O)c1ccc(-n2nc(C(F)(F)F)cc2-c2ccc(C)cc2)cc1` [Example 59, methyl {2-[({4-[5-(4-methylphenyl)-3-(trifluoromethyl)-1H-pyrazol-1-yl]phenyl}sulfonyl)amino]-ethyl}carbamate], the “100% inhibiting time” value is 5.7 min.
